Assay results reported in patent US9657351B2, “MRNA-based gene expression for personalizing patient cancer therapy with an MDM2 antagonist” (Hoffmann-La Roche Inc., priority 2013, dated 2017).

What was measured:
Experiment in all cases: COMPOUND A In Vitro Assay
Assay type in all cases: cell-based
SCH = conditions: Homo sapiens, Stomach, TP53 Mutant
Source text: (§1) To generate an MDM2 antagonist therapy predictive signature, the response of MDM2 antagonist therapy in vitro with gene expression profiling (FIG. 1) is combined. A bank of 287 human cancer cell lines, collectively termed the Cell Lines for Oncology/Chugai ACcumulative Tumour EncycLopedia (CELLO/CACTEL), representing a broad array of diverse human cancer tumor types are subject to evaluation using several high-throughput genomic technology platforms. The mutational status of nucleic acids from each cell line is determined by exome sequencing. Messenger RNA (mRNA) expression levels at baseline, prior to MDM2 antagonist therapy, are obtained via RNA sequencing. MDM2 antagonist therapy COMPOUND A, sometimes referred to herein as RG7112, responses are obtained by assays known to those skilled in the art such as RNA sequencing and microarray measurement using Gene Chip Human Genome U133 Plus 2.0 Array. The MDM2 therapy responses are obtained by high throughout screening assays. Depending on their responses to COMPOUND A these cell lines are classified as either sensitive, defined as IC50<=1, or resistant, defined as IC50>=10.
(§2) 281 cells are treated with MDM2 antagonists and the IC50 (therapy response) is generated. The cell lines span a broad range of tumor cell types of derivation.

U-698-M = conditions: Homo sapiens, Tonsil, TP53 Mutant
Source text: as §1, §2

PC-1 = conditions: Homo sapiens, tissue null, TP53 Wild type
Source text: as §1, §2

MKN-1 = conditions: Homo sapiens, Muscle, smooth, stomach, TP53 Mutant
Source text: as §1, §2

HCC1143 = conditions: Homo sapiens, Breast, mammary gland, TP53 Mutant
Source text: as §1, §2

RPMI-8226 = conditions: Homo sapiens, Lymphocyte B, peripheral blood, TP53 Mutant
Source text: as §1, §2

IMR-32 = conditions: Homo sapiens
Source text: as §1, §2

HARA-B = conditions: Homo sapiens, Lung, TP53 Mutant
Source text: as §1, §2

HCC1500 = conditions: Homo sapiens, Breast, mammary gland, TP53 Wild type
Source text: as §1, §2

YAPC = conditions: Homo sapiens, Pancreas, TP53 Mutant
Source text: as §1, §2

HCC1937 = conditions: Homo sapiens, Breast, TP53 NA
Source text: as §1, §2

WiDr = conditions: Homo sapiens, Intestine, large, colon, TP53 Mutant
Source text: as §1, §2

NCI-H1155 = conditions: Homo sapiens, Lung, TP53 Mutant
Source text: as §1, §2

143B = conditions: Homo sapiens, Bone, TP53 Mutant
Source text: as §1, §2

HT-1197 = conditions: Homo sapiens
Source text: as §1, §2

Daoy = conditions: Homo sapiens, Brain, cerebellum, TP53 Mutant
Source text: as §1, §2

MFE-280 = conditions: Homo sapiens, Uterus, endometrium, TP53 Mutant
Source text: as §1, §2

KMM-1 = conditions: Homo sapiens, Lymphocyte, TP53 Mutant
Source text: as §1, §2

A-172 = conditions: Homo sapiens
Source text: as §1, §2

NCI-H2227 = conditions: Homo sapiens, Lung, TP53 Mutant
Source text: as §1, §2

SW403 = conditions: Homo sapiens, SW-403, Intestine, large, colon, TP53 Mutant
Source text: as §1, §2

LS411N = conditions: Homo sapiens, LS-411N, Intestine, large, caecum, TP53 Mutant
Source text: as §1, §2

HEC-1-A = conditions: Homo sapiens, Uterus, endometrium, TP53 Mutant
Source text: as §1, §2

NCI-H2347 = conditions: Homo sapiens, Lung, TP53 Wild type
Source text: as §1, §2

NCI-H345 = conditions: Homo sapiens, Lung, TP53 Mutant
Source text: as §1, §2

MFM-223 = conditions: Homo sapiens, Breast, mammary gland, TP53 Mutant
Source text: as §1, §2

HCC1569 = conditions: Homo sapiens, Breast, mammary gland, TP53 Mutant
Source text: as §1, §2

NCI-H520 = conditions: Homo sapiens, Lung, TP53 Mutant
Source text: as §1, §2

A-375 = conditions: Homo sapiens
Source text: as §1, §2

SK-MES-1 = conditions: Homo sapiens, Lung, TP53 Mutant
Source text: as §1, §2

ZR-75-1 = conditions: Homo sapiens
Source text: as §1, §2

KARPAS-299 = conditions: Homo sapiens, Blood, TP53 Mutant
Source text: as §1, §2

KYSE-520 = conditions: Homo sapiens, Esophagus, TP53 Mutant
Source text: as §1, §2

SW1417 = conditions: Homo sapiens, Intestine, large, colon, TP53 Mutant
Source text: as §1, §2

BxPC-3 = conditions: Homo sapiens, Pancreas, TP53 Mutant
Source text: as §1, §2

SW626 = conditions: Homo sapiens, Ovary, TP53 Mutant
Source text: as §1, §2

Compound `CCOc1cc(C(C)(C)C)ccc1C1=N[C@@](C)(c2ccc(Cl)cc2)[C@@](C)(c2ccc(Cl)cc2)N1C(=O)N1CCN(CCCS(C)(=O)=O)CC1` [COMPOUND A] has an IC50 (SCH) of 17 µM, an IC50 (U-698-M) of 9.8 µM and an IC50 (PC-1) of 1.3 µM. The IC50 (MKN-1) was 15 µM, the IC50 (HCC1143) was 12 µM and the IC50 (RPMI-8226) was 6.6 µM. The IC50 (IMR-32; IMR-32, IMR-32, Brain, TP53 Wild type) was 0.43 µM, the IC50 (IMR-32; IMR-32, IMR-32 cells) was 0.4 µM and the IC50 (HARA-B) was 10 µM. It also gave an IC50 (HCC1500) of 1 µM, an IC50 (YAPC) of 18 µM and an IC50 (HCC1937) of 15 µM. It also gave an IC50 (WiDr) of 8.9 µM, an IC50 (NCI-H1155) of 22 µM and an IC50 (143B) of 15 µM. The IC50 (HT-1197; HT1197, HT-1197, Urinary, bladder, TP53 Wild type) was 0.19 µM, the IC50 (HT-1197; HT1197, HT-1197 cells) was 0.2 µM and the IC50 (Daoy) was 9.7 µM. The IC50 (MFE-280) was 23 µM, the IC50 (KMM-1) was 19 µM and the IC50 (A-172; A 172, A-172, Brain, TP53 Wild type) was 0.58 µM. For the same compound, the IC50 (A-172; A 172, A-172 cells) was 0.6 µM, the IC50 (NCI-H2227) was 16 µM and the IC50 (SW403) was 6 µM. For the same compound, the IC50 (LS411N) was 16 µM, the IC50 (HEC-1-A) was 16 µM and the IC50 (NCI-H2347) was 9 µM. It also gave an IC50 (NCI-H345) of 17 µM, an IC50 (MFM-223) of 17 µM and an IC50 (HCC1569) of 15 µM. It also gave an IC50 (NCI-H520) of 17 µM, an IC50 (A-375; A-375, A-375, Skin, TP53 Wild type) of 0.32 µM and an IC50 (A-375; A-375, A-375 cells) of 0.3 µM. For the same compound, the IC50 (SK-MES-1) was 6 µM, the IC50 (ZR-75-1; ZR-75-1, ZR-75-1, Breast, mammary gland, TP53 Wild type) was 0.076 µM and the IC50 (ZR-75-1; ZR-75-1, ZR-75-1 cells) was 0.1 µM. The IC50 (KARPAS-299) was 19 µM, the IC50 (KYSE-520) was 10 µM and the IC50 (SW1417) was 9.9 µM. For the same compound, the IC50 (BxPC-3) was 18 µM and the IC50 (SW626) was 9.5 µM.
